The results in this text go back to ChEMBL document CHEMBL3758152, “11-Hydroxylation of Protoberberine by the Novel Berberine-Utilizing Aerobic Bacterium Sphingobium sp. Strain BD3100” (2015).

Each structure is given as a SMILES string. Active and inactive are the calls of the source. The rule behind the calls is not given here.

In experiment [1] the test system is Staphylococcus aureus. Briefly: Antibacterial activity against Staphylococcus aureus H209P at 250 nmol/disk after 12 hrs by paper disk method. Format: functional, organism-based.
For experiment [2], the system named is Staphylococcus aureus. Kind of experiment: Antibacterial activity against Staphylococcus aureus H209P at 125 nmol/disk after 12 hrs by paper disk method. Format: functional.

For `COc1cc2c(cc1OC)-c1cc3cc(O)c(OC)c(OC)c3c[n+]1CC2`, in the experiment on Staphylococcus aureus [1], the result was inactive.
Turning to `COc1c(O)cc2cc3[n+](cc2c1OC)CCc1cc2c(cc1-3)OCO2`, the outcome in the experiment on Staphylococcus aureus [1] was inactive.
Regarding `COc1ccc2cc3[n+](cc2c1OC)CCc1cc2c(cc1-3)OCO2` [BERBERINE], the “diameter of the inhibition zone (DIZ)” value in the experiment with Staphylococcus aureus [2] is 12 mm.
For the compound `COc1c(O)cc2cc3[n+](cc2c1OC)CCc1cc(O)c(O)cc1-3`, the outcome in the experiment with Staphylococcus aureus [1] was inactive.
